Key:
[1] = target: OCT1 (endogenous) + BOB1 (transfected) (Homo sapiens) (UniProt P14859+Q16633); assay: cell_activity; details: BOB1 stimulation over endogenous OCT1 alone, HEK293 luciferase; attenuated by compounds 004, 005, 006 at 10 uM
[2] = system: BOB1/OCT1-mediated transcription; assay: Luciferase reporter assay (transient transfection, 6xPORE-luc); assay type: cell-based, human; details: 10 μM in the culture medium
Procedure: FIGS. 1A-C are a combination of graphs showing that compound 005 inhibits BOB1/OCT1-mediated transcription in vitro. HEC293Ea1 cells, known to express endogenous OCT1, were co-transfected with […] reporter, pEV-OBF1 (BOB1) effector, and pCMV-β-gal calibrator plasmids. Luciferase and β-galactosidase activities were measured 48 hours after transfection. The 100% luciferase activity was set as activity in presence of vehicle (10 μM DMSO). […] All experiments are performed at least in triplicates. Bars indicate the mean±SEM. * P<0.05, ** P<0.01, *** P<0.001, **** P<0.0001.
The HEK293E1a cells were seeded at density 1.2×10^4 per well on 48-well plate in DMEM medium containing 10% fetal calf serum. After 24 hours cells were transfected with plasmid mix (300 ng/well) containing specified amounts of the p6×PORE-luc reporter, pEV-OBF1 and pCG-Oct1 effector, pBluescript II KS+ carrier, and pCMV-βgal (for standardization) as previously described. The transfections were carried out in three biological replicates, using Polyethylenimine (PEI 25K, Polysciences Inc.) at the ratio 2:1 to DNA. After 48 hours, cells were washed with PBS, lysed, and measured for luciferase activity, using the Bright-Glo luciferase assay system (Promega), and for β-galactosidase activity in a standard assay.
BOB1 has been described as a coactivator acting in cooperation with the POU-domain proteins OCT1 and OCT2 bound to distinct DNA-motifs either in monomeric or dimeric configurations. […] As an initial functional assay, we examined the ability of the compounds according to the present invention to affect BOB1-OCT1-PORE-mediated transcriptional activation in transient transfection luciferase assay. To this end, we made use of previously generated 6×PORE-luc and reporter plasmid, in which hexamers of the PORE were cloned upstream of the thymidine kinase (tk) minimal promoter and luciferase gene. […] Furthermore, the addition of a plasmid expressing exogenous OCT1 exerted an inhibitory effect on both basal and BOB1-mediated transcription (data not shown). This observation is likely due to the fact that HEK293 cells, like all other mammalian cell types, express OCT1, and further addition of exogenous OCT1 in these cells shifts the BOB1/OCT1 equilibrium out of optimal range, resulting in squelching effect, and in our experimental setup, in about 3-fold stimulation, as compared to that by endogenous OCT1 alone (FIG. 1A). […] Compound 005 was selected for further detailed investigation.

OCT1 (endogenous) + BOB1 (transfected) (Homo sapiens), sequence (P14859 other isoform, or with tags, fused parts or gaps, chain 1 of 2): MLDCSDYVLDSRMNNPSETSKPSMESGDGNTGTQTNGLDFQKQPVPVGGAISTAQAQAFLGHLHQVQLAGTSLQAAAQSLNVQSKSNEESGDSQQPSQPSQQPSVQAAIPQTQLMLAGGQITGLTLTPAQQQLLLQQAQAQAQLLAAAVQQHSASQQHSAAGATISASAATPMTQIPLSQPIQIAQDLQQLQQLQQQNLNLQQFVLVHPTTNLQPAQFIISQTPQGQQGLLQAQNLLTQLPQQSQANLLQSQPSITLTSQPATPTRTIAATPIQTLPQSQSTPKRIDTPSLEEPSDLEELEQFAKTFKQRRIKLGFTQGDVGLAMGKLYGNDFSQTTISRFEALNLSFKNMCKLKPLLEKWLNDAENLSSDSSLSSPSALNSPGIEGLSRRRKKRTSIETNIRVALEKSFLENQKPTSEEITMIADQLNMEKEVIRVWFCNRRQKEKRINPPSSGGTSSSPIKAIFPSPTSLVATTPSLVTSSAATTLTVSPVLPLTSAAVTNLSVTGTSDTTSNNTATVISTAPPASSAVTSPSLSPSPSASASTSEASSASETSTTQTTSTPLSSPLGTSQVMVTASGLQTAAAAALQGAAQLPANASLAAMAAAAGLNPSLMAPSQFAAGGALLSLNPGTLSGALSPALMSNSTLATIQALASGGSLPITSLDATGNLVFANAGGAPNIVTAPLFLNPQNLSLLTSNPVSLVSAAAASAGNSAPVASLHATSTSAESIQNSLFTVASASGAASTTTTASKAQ
OCT1 (endogenous) + BOB1 (transfected) (Homo sapiens), sequence (Q16633 whole entry, chain 2 of 2): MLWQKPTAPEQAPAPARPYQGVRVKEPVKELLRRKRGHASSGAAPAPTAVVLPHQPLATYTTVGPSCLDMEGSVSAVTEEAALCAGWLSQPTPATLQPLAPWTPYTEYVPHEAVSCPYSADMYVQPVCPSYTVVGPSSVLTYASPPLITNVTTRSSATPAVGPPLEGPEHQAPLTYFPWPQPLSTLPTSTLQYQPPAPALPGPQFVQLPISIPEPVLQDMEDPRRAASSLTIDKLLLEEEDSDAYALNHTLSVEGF

6xPORE-tk-luc reporter
activity [1]: 3 fold

O=C(Nc1ccc(Br)c(C(F)(F)F)c1)C1CCCCN1c1nc(NCc2cccc(F)c2)nc(N(CCO)CCO)n1 (stereo not drawn) [compound 004, 1-(4-(bis(2-hydroxyethyl)amino)-6-((3-fluorobenzyl)amino)-1,3,5-triazin-2-yl)-N-(4-bromo-3-(trifluoromethyl)phenyl)piperidine-2-carboxamide]
BOB1/OCT1-driven transcription (relative luciferase activity) [2]: significantly attenuated

O=C(O)CCNc1nc(NCCCc2ccc(F)cc2)nc(N2CCCC(C(=O)N3CCC(Cc4ccccc4)CC3)C2)n1 (stereo not drawn) [compound 006, 3-((4-(3-(4-benzylpiperidine-1-carbonyl)piperidin-1-yl)-6-((3-(4-fluorophenyl)propyl)amino)-1,3,5-triazin-2-yl)amino)propanoic acid]
BOB1/OCT1-driven transcription (relative luciferase activity) [2]: significantly attenuated

— US20250177412A1, “SMALL-MOLECULE INHIBITORS TARGETING THE BOB1/OCT1 INTERFACE” (NANTES UNIVERSITE, priority 2022, published 2025)
